Test results taken from US7173019B2, “Linked cyclitols and their polysulfated derivatives” (The Australian National University, priority 2001, dated 2007).
Where two headings read alike, the source gives them in different places.

Tests used:
[1] = target: T1, IL-8 (Homo sapiens, UniProt P10145); test: Biacore biosensor: inhibition of IL-8 binding to immobilised heparin and heparan sulfate; details: inhibitor 1.0 μM, IL-8 0.068 μM
T1 sequence (P10145 21-99): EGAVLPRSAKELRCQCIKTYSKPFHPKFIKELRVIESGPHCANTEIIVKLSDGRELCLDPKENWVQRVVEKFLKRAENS
Experimental: (§1) Assays were performed using a Biacore™ 2000 optical biosensor obtained from Biacore AB, Uppsala, Sweden. The biosensor was operated in accordance with the manufacturer's instructions. Briefly, neutravidin was covalently coupled to the surface of CM5 chips of the biosensor and then either biotinylated heparin (1 μg/ml) or biotinylated heparan sulfate ([…]) bound to the immobilised neutravidin. Mixtures of a test compound and a growth factor or other effector compound were preincubated for 2 to 5 minutes and the mixtures then added to individual biosensor cuvettes. Binding of growth factor or effector compound to the heparin or heparan sulfate was then monitored for approximately 5 minutes with the biosensor.

[2] = target: T2, VEGF (Homo sapiens, UniProt P15692); test: Biacore biosensor: inhibition of VEGF binding to immobilised heparin and heparan sulfate; details: inhibitor 0.034 μM, VEGF 0.025 μM
T2 sequence (P15692 27-191 isoform P15692-4): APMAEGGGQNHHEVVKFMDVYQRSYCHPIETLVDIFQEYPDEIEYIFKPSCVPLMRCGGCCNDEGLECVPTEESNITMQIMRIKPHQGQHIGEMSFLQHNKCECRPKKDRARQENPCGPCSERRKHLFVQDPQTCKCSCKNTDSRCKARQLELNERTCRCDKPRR
Experimental: as §1
(§2) The tabulated values are the IC50 in μM or % inhibition of binding of the growth factor to the immobilised heparan sulfate (HS) or heparin.

[3] = target: T3, human platelet heparanase (Homo sapiens, UniProt Q9Y251); test: Heparanase inhibition, 3H-radiolabelled HS cleavage assay; type: biochemical; details: for Relative inhibition (%) / inhibition: based on a comparison with heparin with 100% inhibition at 30 μg/ml; for EC50: heparanase inhibition; for inhibition: read-out: Relative inhibition (%)
T3 construct: 10 ng of purified human platelet heparanase; from tissue; host or cells: human platelets
T3 sequence (Q9Y251 158-543 limits assumed): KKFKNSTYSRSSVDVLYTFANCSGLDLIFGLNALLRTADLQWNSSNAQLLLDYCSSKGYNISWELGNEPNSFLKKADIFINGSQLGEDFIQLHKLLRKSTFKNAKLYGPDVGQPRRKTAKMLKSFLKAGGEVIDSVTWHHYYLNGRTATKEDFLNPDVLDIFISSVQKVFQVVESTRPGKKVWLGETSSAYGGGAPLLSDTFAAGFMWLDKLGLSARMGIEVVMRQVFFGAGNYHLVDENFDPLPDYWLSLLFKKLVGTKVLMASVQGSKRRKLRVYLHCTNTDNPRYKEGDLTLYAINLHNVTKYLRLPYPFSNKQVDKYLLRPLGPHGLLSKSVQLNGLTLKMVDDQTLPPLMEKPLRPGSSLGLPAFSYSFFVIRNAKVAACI
T3 sequence (Q9Y251 36-109 limits assumed): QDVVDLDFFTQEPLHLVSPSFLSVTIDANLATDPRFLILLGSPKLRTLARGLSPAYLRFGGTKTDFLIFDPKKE
Experimental: Briefly, to an incubation mixture of […] containing ^3H-radiolabelled porcine mucosal HS […], 50 mM-sodium acetate buffer, pH 5.0, […] bovine serum albumin and the inhibitor to be tested, was added 10 ng of purified human platelet heparanase and the mixture incubated for 30 min. The reaction was terminated by freezing the assay tubes. The substrate was separated from the cleavage products on minicolumns of sepharose-bound histidine-rich glycoprotein (Freeman, C., and Parish, C. R. [1997], supra).
Inhibitory activity is based on a comparison with heparin with 100% inhibition at 30 μg/ml. The compounds were also tested at the same purity as in Example 15.

[4] = target: aFGF (Homo sapiens, UniProt P05230); test: Biacore biosensor: inhibition of aFGF binding to immobilised heparin and heparan sulfate; details: inhibitor 0.034 μM, aFGF 0.025 μM
aFGF, sequence (P05230 whole entry, species assumed): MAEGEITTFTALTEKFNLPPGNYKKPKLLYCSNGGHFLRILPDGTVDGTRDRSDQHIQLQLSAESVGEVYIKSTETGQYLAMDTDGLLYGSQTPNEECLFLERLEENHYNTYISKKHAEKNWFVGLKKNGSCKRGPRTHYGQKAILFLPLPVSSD
Experimental: as §1, §2

[5] = test system: rat aorta fragments; test: In vitro angiogenesis inhibition assay; type: cell-based; details: control 90
Experimental: The ability of linked cyclitol compounds to inhibit angiogenesis in vitro was conducted using the assay essentially as described in the present applicant's International Patent Application No. PCT/AU95/00105 (Publication No. WO 95/23968), the entire content of which is incorporated herein by cross reference. The only changes to the procedure described in PCT/AU95/00105 were that the assays were conducted using rat aorta fragments rather than human placental vessel fragments.
All potential inhibitors were tested at 100 μg/ml with PI-88 also being tested at 10 μg/ml. The tabulated data represent means of 4 culture wells for each experiment. Significant inhibition of angiogenesis is indicated with a single asterisk while double asterisks denote highly significant inhibition.
The compounds were also tested at the same purity as in Example 15 save that the second entries for 4b and 4j relate to data obtained with higher purity compounds than the compounds used for the first data entries of each.

[6] = target: bFGF (Homo sapiens, UniProt P09038); test: Biacore biosensor: inhibition of bFGF binding to immobilised heparin and heparan sulfate; details: for Inhibition of binding of bFGF (HS) / Inhibition of binding of bFGF (Hep) / inhibition at 0.034 µM: inhibitor 0.034 μM, bFGF 0.034 μM
bFGF, sequence (P09038 134-288 limits assumed, species assumed): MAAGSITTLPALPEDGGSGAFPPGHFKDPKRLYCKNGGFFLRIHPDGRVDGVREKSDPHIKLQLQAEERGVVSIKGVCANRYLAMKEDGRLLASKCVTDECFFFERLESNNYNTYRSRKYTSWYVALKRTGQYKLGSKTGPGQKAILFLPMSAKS
Experimental: as §1, §2

[7] = target: T4, human leukocyte Cathepsin G (Homo sapiens, UniProt P08311); test: Cathepsin G inhibition, fluorogenic substrate, 96 well assay; type: biochemical; details: human leukocyte cathepsin G 100 ng, 37° C., 60 min, pH 6.6; for IC50: read-out: Amount for 50% inhibition (converted)
T4 construct: human leukocyte Cathepsin G (100 ng protein); from tissue; host or cells: human leukocytes
T4 sequence (P08311 21-244): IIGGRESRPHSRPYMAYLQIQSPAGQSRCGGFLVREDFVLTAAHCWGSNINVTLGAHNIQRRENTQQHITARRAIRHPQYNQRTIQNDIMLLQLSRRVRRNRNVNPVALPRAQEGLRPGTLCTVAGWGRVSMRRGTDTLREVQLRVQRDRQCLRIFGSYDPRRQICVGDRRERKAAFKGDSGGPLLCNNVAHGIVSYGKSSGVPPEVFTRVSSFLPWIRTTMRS
Experimental: Cathepsin G activity was determined using a 96 well assay format in PVC microtitre U-bottom plates with activity determination by a fluorescence plate reader. Briefly, within a total incubation volume of 40 μl, human leukocyte Cathepsin G (100 ng protein) was added to a mixture of inhibitor and the fluorogenic substrate MeOSuc-ala-ala-pro-phe-AMAC in 50 mM-NaOAc buffer, pH 6.6 containing 50 mM NaCl and 0.1% (v/v) Brij 35. The mixture was incubated at 37° C. for 60 min, the reaction stopped by the addition of 40 μl of 250 mM acetic acid and the fluorescence determined with excitation at 360 nm and emitted light measured at 460 nm.
In this table, the linked cyclitol compound identifications are the same as those given in Section A above where the structures of the compounds are also given. With regard to the purity rating, a greater number of asterisks signifies a greater degree of purity with five asterisks signifying an essentially pure compound. The cathepsin G inhibition data are the concentrations of compounds required to inhibit the enzyme by 50%.

[8] = inhibitor 100 μg/ml, means of 4 culture wells per experiment, * significant, ** highly significant inhibition
[9] = immobilised heparan sulfate, read-out: IC50, inhibition of bFGF binding (HS)
[10] = immobilised heparin, read-out: IC50, inhibition of bFGF binding (Hep)
[11] = immobilised heparan sulfate, read-out: Inhibition of binding of IL-8 (HS)
[12] = immobilised heparin, read-out: Inhibition of binding of IL-8 (Hep)
[13] = immobilised heparan sulfate, read-out: Inhibition of binding of VEGF (HS)
[14] = immobilised heparin, read-out: Inhibition of binding of VEGF (Hep)
[15] = immobilised heparan sulfate, read-out: Inhibition of binding of aFGF (HS)
[16] = immobilised heparin, read-out: Inhibition of binding of aFGF (Hep)
[17] = immobilised heparan sulfate, read-out: Inhibition of binding of bFGF (HS)
[18] = immobilised heparin, read-out: Inhibition of binding of bFGF (Hep)

Row | Compound | Inhibition of binding of IL-8 (HS) ([1]; immobilised heparan sulfate) | Inhibition of binding of IL-8 (Hep) ([1]; immobilised heparin) | Inhibition of binding of VEGF (HS) ([2]; immobilised heparan sulfate) | Inhibition of binding of VEGF (Hep) ([2]; immobilised heparin) | Relative inhibition (%) [3] [%] | EC50 [3] [µg/mL] | Inhibition of binding of aFGF (HS) ([4]; immobilised heparan sulfate) | Inhibition of binding of aFGF (Hep) ([4]; immobilised heparin) | % Growth [5, 8] | Inhibition of binding of bFGF (HS) ([6]; immobilised heparan sulfate) | IC50 [6, 9] [nM] | Inhibition of binding of bFGF (Hep) ([6]; immobilised heparin) | IC50 [6, 10] [nM] | inhibition at 1 µM [1, 11] [%] | inhibition at 1 µM [1, 12] [%] | inhibition at 0.034 µM [2, 13] [%] | inhibition at 0.034 µM [2, 14] [%] | inhibition [3] [%] | EC50 ([3]; read-out: EC50 (converted)) [nM] | inhibition at 0.034 µM [4, 15] [%] | also measured
1 | phosphomannopentaose sulfate [PI-88, reference compound] | 0% | 10% | 65% (HS) | 29% (Hep) | 100 | 2.9 | 33% (HS) | 96% (Hep) | 45** % | 56% (HS) | 25 | 50% (Hep) | 34 | – | – | – | – | – | – | – | Inhibition (%) at 10 μg/ml ([3]; 10 μg/ml): 90%; % Growth ([5]; inhibitor 10 μg/ml, * significant inhibition): 64* %
2 | O=S(=O)(O)O[C@H]1[C@H](OS(=O)(=O)O)[C@@H](N(CCCCCCCCCCN([C@H]2C=C[C@@H](OS(=O)(=O)O)[C@@H](OS(=O)(=O)O)[C@@H]2OS(=O)(=O)O)[C@H]2C=C[C@@H](OS(=O)(=O)O)[C@@H](OS(=O)(=O)O)[C@@H]2OS(=O)(=O)O)[C@H]2C=C[C@@H](OS(=O)(=O)O)[C@@H](OS(=O)(=O)O)[C@@H]2OS(=O)(=O)O)C=C[C@H]1OS(=O)(=O)O [Compound 4c] | – | – | – | – | – | – | – | – | – | – | – | – | – | 77 | 76 | 53 | 62 | 45 | 25500 | 21 | inhibition at 0.034 µM [4, 16]: 26%; IC50 [7]: 158 nM; inhibition at 0.034 µM [6, 17]: 43%; inhibition at 0.034 µM [6, 18]: 34%
3 | O=S(=O)(O)O[C@H]1[C@H](OS(=O)(=O)O)[C@@H](N(CCCCCCCCN([C@H]2C=C[C@@H](OS(=O)(=O)O)[C@@H](OS(=O)(=O)O)[C@@H]2OS(=O)(=O)O)[C@H]2C=C[C@@H](OS(=O)(=O)O)[C@@H](OS(=O)(=O)O)[C@@H]2OS(=O)(=O)O)[C@H]2C=C[C@@H](OS(=O)(=O)O)[C@@H](OS(=O)(=O)O)[C@@H]2OS(=O)(=O)O)C=C[C@H]1OS(=O)(=O)O [Compound 4i] | – | – | – | – | – | – | – | – | – | – | – | – | – | 89 | 95 | 71 | 70 | 53 | 16100 | 28 | inhibition at 10 µg/mL ([3]; read-out: Inhibition (%) at 10 μg/ml): 39%; inhibition at 0.034 µM [4, 16]: 30%; IC50 [7]: 136 nM; inhibition at 0.034 µM [6, 17]: 51%; inhibition at 0.034 µM [6, 18]: 45%
4 | O=S(=O)(O)OC1C(OS(=O)(=O)O)C(OS(=O)(=O)O)C(N(Cc2ccc(CN(C3C(OS(=O)(=O)O)C(OS(=O)(=O)O)C(OS(=O)(=O)O)C(OS(=O)(=O)O)C3OS(=O)(=O)O)C3C(OS(=O)(=O)O)C(OS(=O)(=O)O)C(OS(=O)(=O)O)C(OS(=O)(=O)O)C3OS(=O)(=O)O)cc2)C2C(OS(=O)(=O)O)C(OS(=O)(=O)O)C(OS(=O)(=O)O)C(OS(=O)(=O)O)C2OS(=O)(=O)O)C(OS(=O)(=O)O)C1OS(=O)(=O)O (stereo not shown) [Compound 5e] | – | – | – | – | – | – | – | – | 60* % | – | – | – | – | – | – | – | – | – | – | – | –
5 | O=S(=O)(O)OC1C(OS(=O)(=O)O)C(OS(=O)(=O)O)C(N(Cc2cccc(CN(C3C(OS(=O)(=O)O)C(OS(=O)(=O)O)C(OS(=O)(=O)O)C(OS(=O)(=O)O)C3OS(=O)(=O)O)C3C(OS(=O)(=O)O)C(OS(=O)(=O)O)C(OS(=O)(=O)O)C(OS(=O)(=O)O)C3OS(=O)(=O)O)c2)C2C(OS(=O)(=O)O)C(OS(=O)(=O)O)C(OS(=O)(=O)O)C(OS(=O)(=O)O)C2OS(=O)(=O)O)C(OS(=O)(=O)O)C1OS(=O)(=O)O (stereo not shown) [Compound 5d] | 62% (HS) | 71% (Hep) | 39% (HS) | 54% (Hep) | 100 | 6 | 67% (HS) | 72% (Hep) | – | 48% (HS) | 38 | 35% (Hep) | 160 | – | – | – | – | – | – | – | Amount for 50% inhibition [7]: 0.53 µg/mL
